Experiment [1] has as its target cucumber salicylic acid binding protein. As to the kind of experiment: Salicylic acid binding activity from cucumber. Particulars: cucumber derived salicylic acid binding protein. The source says:
Several, of the MAbs that bind to the tobacco 57 kDa protein and 280 kDa complex also recognize a 57 kDa protein in fresh homogenates from cucumbers. The salicylic acid binding activity from cucumber has similar affinity (Kd) and specificity as the tobacco salicylic acid binding protein. Like the tobacco salicylic acid binding protein, the cucumber salicylic acid binding protein also has a large native molecular weight (approximately 200 kDa). Thus, it appears that the cucumber salicylic acid binding protein is also a complex composed of multiple subunits at least one of which is probably the 57 kDa protein recognized by the MAbs made against the tobacco salicylic acid binding protein. It should be noted, however, that there may be some minor variation in molecular weight and Kd for salicylic acid binding protein from one plant species to the next. For example, cucumber derived salicylic acid binding protein appears to have an apparent average native molecular weight of about 200 kDa and a Kd of about 30±5 μM.

For experiment [2], the target named is T1, catalase activity of SABP (Nicotiana tabacum, UniProt P49319).
T1 sequence (P49319 1-492): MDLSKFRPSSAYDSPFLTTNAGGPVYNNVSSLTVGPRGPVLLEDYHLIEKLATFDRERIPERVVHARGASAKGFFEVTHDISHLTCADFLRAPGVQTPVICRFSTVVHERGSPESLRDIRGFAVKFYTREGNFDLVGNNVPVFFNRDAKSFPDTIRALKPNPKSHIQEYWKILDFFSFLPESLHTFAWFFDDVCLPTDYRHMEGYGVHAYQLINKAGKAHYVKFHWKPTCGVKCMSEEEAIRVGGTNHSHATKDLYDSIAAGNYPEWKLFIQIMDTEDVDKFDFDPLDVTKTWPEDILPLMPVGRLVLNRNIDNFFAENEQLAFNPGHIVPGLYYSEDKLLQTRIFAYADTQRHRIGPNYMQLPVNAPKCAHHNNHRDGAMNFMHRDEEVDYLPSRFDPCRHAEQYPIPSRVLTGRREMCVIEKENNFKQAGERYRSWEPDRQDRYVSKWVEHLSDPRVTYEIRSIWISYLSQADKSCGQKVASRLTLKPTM
The experiment in a line: Catalase activity of highly purified SABP (luminol method). It is filed as biochemical, tobacco. Particulars: 0.05 h; 1 mM SA or analogue, 1 mM H2O2, 500 ng highly purified SABP. The protocol: Aliquots (50 μl) were removed from the assay mixture at 30 second intervals to assay for amount of H2 O2 remaining using the luminol method as has been described by Warm and Laties, Phytochem. […] The tube was placed in the measuring chamber and assay was initiated with automatic injection into the mixture of 100 μl of 0.5 mM K3 Fe(CN)6 in 0.2N NH4 OH, pH 9.5. Measurements were integrated over 5 second periods. H2 O2 was calculated from the standard curve constructed with known amounts of H2 O2. Rate constants of SABP catalase activity in the presence or absence of SA or its analogues were then calculated based on a first-order mechanism.

The structures appear in SMILES notation.

The term Kd denotes the equilibrium constant for the complex coming apart. Read a high Kd as a looser complex. As usually defined, the inhibition is how much of the control response was suppressed. Higher therefore signals a response far below the control. For `O=C(O)c1ccccc1O` [salicylic acid, 2-hydroxybenzoic acid], the dissociation constant Kd in experiment [1] is roughly 30 µM. At 1000 µM the inhibition in experiment [2] was 80%.

Source of the values: US5989846A, “Assays to identify inducers of plant defense resistance” (Rutgers, The State University of New Jersey, priority 1995, dated 1999).
